The IC50 is the concentration at which inhibition is half-maximal. Read a high IC50 as weaker potency in that assay.

SMILES strings stand for the structures.

Results on 11 compounds are retold here after US9475817B2 (BRISTOL-MYERS SQUIBB COMPANY, priority 2012, dated 2016).

The target in one assay is CK1ε (Homo sapiens (Human), UniProt P49674). In words: CK1ε kinase assay (Caliper LabChip, fluoresceinated peptide substrate). It is filed as biochemical. As to conditions: 200 pM CK1ε, 50 μM ATP, 1.5 μM peptide substrate, 22 hours room temperature. As to the method: (§1) CK1ε and CK1δ Kinase Assays
(§2) The kinase assay was performed in V-bottom 384-well plates. […] The reaction was incubated at room temperature for 22 hours and terminated by adding 45 μl of 35 mM EDTA to each sample. […] Compounds were dissolved at 10 mM in dimethylsulfoxide (DMSO) and evaluated at eleven concentrations. IC50 values were derived by non-linear regression analysis.

The target in the next assay is CK1δ (Homo sapiens (Human), UniProt P48730). In words: CK1δ kinase assay (Caliper LabChip, fluoresceinated peptide substrate). It is filed as biochemical. The settings on record: 200 pM CK1δ, 50 μM ATP, 1.5 μM peptide substrate, 22 hours room temperature. On the procedure:
as §1, §2

Sequence of CK1ε (P49674 whole entry): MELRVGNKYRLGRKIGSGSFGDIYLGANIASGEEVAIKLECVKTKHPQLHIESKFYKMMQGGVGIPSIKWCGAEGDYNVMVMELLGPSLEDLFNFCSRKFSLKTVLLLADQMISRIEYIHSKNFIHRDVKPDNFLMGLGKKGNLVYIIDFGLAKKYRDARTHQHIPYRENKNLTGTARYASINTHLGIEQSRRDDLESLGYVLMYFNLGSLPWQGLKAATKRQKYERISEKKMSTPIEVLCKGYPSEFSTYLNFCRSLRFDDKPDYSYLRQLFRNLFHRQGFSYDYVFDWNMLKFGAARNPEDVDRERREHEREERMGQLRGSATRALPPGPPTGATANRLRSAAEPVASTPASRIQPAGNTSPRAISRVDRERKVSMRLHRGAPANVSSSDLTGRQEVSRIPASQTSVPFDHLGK
Sequence of CK1δ (P48730 whole entry): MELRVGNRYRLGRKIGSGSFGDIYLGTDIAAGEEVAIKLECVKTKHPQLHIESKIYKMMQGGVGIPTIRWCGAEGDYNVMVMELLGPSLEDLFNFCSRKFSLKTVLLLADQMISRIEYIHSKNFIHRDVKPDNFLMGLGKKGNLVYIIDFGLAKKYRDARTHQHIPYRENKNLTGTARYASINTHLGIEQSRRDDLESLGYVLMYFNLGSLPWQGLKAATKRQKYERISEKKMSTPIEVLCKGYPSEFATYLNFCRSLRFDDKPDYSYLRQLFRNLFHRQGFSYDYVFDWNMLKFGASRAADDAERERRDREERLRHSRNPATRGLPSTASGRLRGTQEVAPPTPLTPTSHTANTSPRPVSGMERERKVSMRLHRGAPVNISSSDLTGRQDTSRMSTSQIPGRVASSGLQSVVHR

Turning to `Cc1nc(-c2ccncc2)sc1C(=O)Nc1cn2nc(-c3c(-c4ccc(F)cc4)nn(C)c3N3CCOCC3)ccc2n1` [Compound 147, N-(6-(3-(4-fluorophenyl)-1-methyl-5-morpholino-1H-pyrazol-4-yl)imidazo [1,2-b]pyridazin-2-yl)-4-methyl-2-(pyridin-4-yl)thiazole-5-carboxamide], the half-inhibitory concentration (IC50) at CK1ε turned out to be 7.9 nM; against CK1δ, 0.7 nM.
For `Cn1cc(-c2ccc3nc(NC(=O)c4cncs4)cn3n2)c(-c2ccc(F)cc2)n1` [Compound 28, N-(6-(3-(4-fluorophenyl)-1-methyl-1H-pyrazol-4-yl)imidazo[1,2-b]pyridazin-2-yl) thiazole-5-carboxamide] the same measures were 6.6 nM and 3.1 nM.
Turning to `Cn1nc(-c2ccc(F)cc2)c(-c2ccc3nc(NC(=O)c4ccnc(N5CCOCC5)c4)cn3n2)c1N1CCN(Cc2ccon2)CC1` [Compound 136, N-(6-(3-(4-Fluorophenyl)-5-(4-(isoxazol-3-ylmethyl)piperazin-1-yl)-1-methyl-1H-pyrazol-4-yl)imidazo[1,2-b]pyridazin-2-yl)-2-morpholinoisonicotinamide], the figures for the IC50 against CK1ε and against CK1δ were 12 nM and 0.8 nM, respectively.
For `Cn1cc(-c2ccc3nc(NC(=O)c4ccno4)cn3n2)c(-c2ccc(F)cc2)n1` [Compound 22, N-(6-(3-(4-fluorophenyl)-1-methyl-1H-pyrazol-4-yl)imidazo[1,2-b]pyridazin-2-yl)isoxazole-5-carboxamide] the same measures were 15.2 nM and 3.7 nM.
For `Cn1nc(-c2ccc(F)cc2)c(-c2ccc3nc(NC(=O)c4ccnc(F)c4)cn3n2)c1C1CCOCC1` [Compound 196, 2-Fluoro-N-(6-(3-(4-fluorophenyl)-1-methyl-5-(tetrahydro-2H-pyran-4-yl)-1H-pyrazol-4-yl)imidazo[1,2-b]pyridazin-2-yl)isonicotinamide] the same measures were 2 nM and 0.2 nM.
In the same order, the values of `Cn1nc(-c2ccc(F)cc2)c(-c2ccc3nc(NC(=O)c4ccnc(F)c4)cn3n2)c1N1CCN(C(=O)CN)CC1` [Compound 123, N-(6-(5-(4-(2-Aminoacetyl)piperazin-1-yl)-3-(4-fluorophenyl)-1-methyl-1H-pyrazol-4-yl)imidazo[1,2-b]pyridazin-2-yl)-2-fluoroisonicotinamide] are 0.2 nM and 0.1 nM.
For `Cn1cc(-c2ccc3nc(NC(=O)c4ccccc4)cn3n2)c(-c2ccc(F)cc2)n1` [Compound 81, N-(6-(3-(4-fluorophenyl)-1-methyl-1H-pyrazol-4-yl)imidazo[1,2-b]pyridazin-2-yl)benzamide], the IC50 came to 5.6 nM against CK1ε and 5.4 nM at CK1δ.
For `Cn1cc(-c2ccc3nc(NC(=O)OCc4ccccc4)cn3n2)c(-c2ccc(F)cc2)n1` [Compound 187, Benzyl 6-(3-(4-fluorophenyl)-1-methyl-1H-pyrazol-4-yl)imidazo[1,2-b]pyridazin-2-ylcarbamate], the IC50 is greater than 2000 nM against CK1ε and 51.5 nM on CK1δ.
In the same order, the values of `Cn1cc(-c2ccc3nc(NC(=O)c4ccccc4)c(Cl)n3n2)c(-c2ccc(F)cc2)n1` [Compound 191, N-(3-Chloro-6-(3-(4-fluorophenyl)-1-methyl-1H-pyrazol-4-yl)imidazo[1,2-b]pyridazin-2-yl)benzamide] are 153 nM and 24.5 nM.
In the same order, the values of `Cn1cc(-c2ccc3nc(NC(=O)C45CCCC(CCC4)C5)cn3n2)c(-c2ccc(F)cc2)n1` [Compound 92, N-(6-(3-(4-fluorophenyl)-1-methyl-1H-pyrazol-4-yl)imidazo[1,2-b]pyridazin-2-yl)bicyclo[3.3.1]nonane-1-carboxamide] are 10.5 nM and 5.5 nM.
For `Cn1nc(-c2ccc(F)cc2)c(-c2ccc3nc(NC(=O)c4ccncc4)cn3n2)c1N1CCNCC1` [Compound 129, N-(6-(3-(4-Fluorophenyl)-1-methyl-5-(piperazin-1-yl)-1H-pyrazol-4-yl)imidazo[1,2-b]pyridazin-2-yl)isonicotinamide] the same measures were 3.3 nM and 0.9 nM.
